{"source": "paper PMC9305947", "about": "“Rational Design of Phe‐BODIPY Amino Acids as Fluorogenic Building Blocks for Peptide‐Based Detection of Urinary Tract Candida Infections” (Angewandte Chemie (International Ed. in English), 2022)", "key": {"C. glabrata": {"tested_on": "C. glabrata", "format": "cell-based, Candida glabrata", "settings": "48 h", "method": "(§1) Figure 4 a) Synthetic procedure for the preparation Fmoc‐Phe(pMP‐BODIPY)‐OH (11). Inset: pictures of solutions of probe 17 (30 μM) under excitation with a 365 nm UV‐lamp in PBS (left) and in liposomes (right). b) Minimum inhibitory concentration (MIC) values of peptides 12–16 against different Candida strains (5×10^5 cells mL^−1) in 20 % Vogel's medium after 48 h incubation at 37 °C. MIC was determined by brightfield microscopy from three independent experiments. c) Chemical structure of peptide 17 and fluorogenic response (25 μM) in PBS (black) and in aqueous suspensions containing liposomes (red). λ exc: 530 nm (n=3). d) MIC values of peptide 17 against different Candida strains and bacteria (5×10^5 cells mL^−1) in 10 % liquid LB medium after 48 h incubation at 37 °C. MIC was determined by brightfield microscopy from three independent experiments (n=3). e) Normalised fluorescence of probe 17 (30 μM) when incubated in diluted urine samples under continuous light irradiation. λ exc: 530 nm. Data presented as mean±SD (n=3). TEXT PRINTED IN THE PICTURE: (a) no label printed: QY 0.08% (OFF); QY 14.9% (ON) | (b) 12: MIC (μmol L^-1) C. inconspic.: 60; MIC (μmol L^-1) C. arius: > 60; MIC (μmol L^-1) C. albicans: 15; MIC (μmol L^-1) C. rugosa: 15; MIC (μmol L^-1) C. glabrata: 30; MIC (μmol L^-1) C. krusei: 30 | (b) 13: MIC (μmol L^-1) C. inconspic.: 2; MIC (μmol L^-1) C. arius: 4; MIC (μmol L^-1) C. albicans: 4; MIC (μmol L^-1) C. rugosa: 16; MIC (μmol L^-1) C. glabrata: 8; MIC (μmol L^-1) C. krusei: 4 | (b) 14: MIC (μmol L^-1) C. inconspic.: > 60; MIC (μmol L^-1) C. arius: > 60; MIC (μmol L^-1) C. albicans: > 60; MIC (μmol L^-1) C. rugosa: > 60; MIC (μmol L^-1) C. glabrata: > 60; MIC (μmol L^-1) C. krusei: > 60 | (b) 15: MIC (μmol L^-1) C. inconspic.: 4; MIC (μmol L^-1) C. arius: > 60; MIC (μmol L^-1) C. albicans: 16; MIC (μmol L^-1) C. rugosa: > 60; MIC (μmol L^-1) C. glabrata: 16; MIC (μmol L^-1) C. krusei: 8 | (b) 16: MIC (μmol L^-1) C. inconspic.: 2; MIC (μmol L^-1) C. arius: 32; MIC (μmol L^-1) C. albicans: 4; MIC (μmol L^-1) C. rugosa: 32; MIC (μmol L^-1) C. glabrata: 4; MIC (μmol L^-1) C. krusei: 8 | (c) peptide 17: λexc.: 530 nm; λem.: 625 nm | (d) peptide 17: MIC (μmol L^-1) C. inconspicua: 8; MIC (μmol L^-1) C. arius: 64; MIC (μmol L^-1) C. albicans: 16; MIC (μmol L^-1) C. rugosa: 64; MIC (μmol L^-1) C. glabrata: 32; MIC (μmol L^-1) C. krusei: 8; MIC (μmol L^-1) E. Coli: > 200 DOUBTS OF THE COPYIST ABOUT THIS PICTURE: Panel a, QY 0.08% / 14.9%: the picture prints no substance label beside the OFF/ON photographs, so the label is left empty / Panel d: the table itself prints no substance label; it is assigned to 'peptide 17', printed directly above it in panel c / Panel c, λexc. 530 nm and λem. […]"}, "C. krusei": {"tested_on": "C. krusei", "format": "cell-based, Candida krusei", "settings": "48 h", "method": "as §1"}, "C. rugosa": {"tested_on": "C. rugosa", "format": "cell-based, Candida rugosa", "settings": "48 h", "method": "as §1"}, "C. albicans": {"tested_on": "C. albicans", "format": "cell-based, Candida albicans", "settings": "48 h", "method": "as §1"}, "C. inconspicua": {"tested_on": "C. inconspicua", "format": "cell-based, Candida inconspicua", "settings": "48 h", "method": "as §1"}, "[1]": {"format": "in vitro ADME, human", "settings": "diluted urine (urine:water 1:6)", "from_the_text": "To the best of our knowledge, compound 11 represents the first example of a Phe‐based BODIPY amino acid for SPPS with strong emission in the red region of the visible spectrum. Prior to the incorporation of Phe‐(pMP)BODIPY amino acid 11 into peptides that could detect Candida fungal cells, we prepared a small collection of Phe‐containing antimicrobial peptides as fungal‐targeting scaffolds that could later accommodate BODIPY‐based aromatic FlAAs (Figure 4b). We selected peptide analogues derived from the natural occurring temporin L (Rana temporaria, peptide 12),[31] jelleine‐I (Apis mellifera, peptide 13)[32] and Aurein1.2 (Litoria aurea or Litoria raniformis, peptide 15).[33] […] We next analysed the biological profile of peptide 17 in fungal cells and its selectivity over bacteria. […] Furthermore, we evaluated the photo‐ and chemical stability of the peptide 17 in human urine upon continuous light irradiation. In these assays, we ran both fluorescence and HPLC analysis to confirm that the peptide 17 was fully stable for the clinical evaluation of urine samples using fluorescence‐based assays (Figure 4e and Figure S13).\n[…] Environmental sensitivity was measured by comparing the fl uore sce nc e emission in Me OH vs gl yc e rol (c om pounds 4-7) a nd i n pre se nc e of l i posom e suspe nsi ons i n PB Sor PBS a l one (c om pound 17). […]"}}, "note": "*1 amine or outer side, *2 acyl side, *3 side chain or, on linkers, in order; H or OH if unused. Where a SMILES comes first, the peptide text is derived from it. Where no end group is shown, it is not given here. [ ]: non-standard residue; d: D form. X1 = COc1ccc(C2=[N+]3C(=C(c4ccc(C[C@H](N[*:1])C(=O)[*:2])cc4)c4ccc(-c5ccc(OC)cc5)n4[B-]3(F)F)C=C2)cc1", "data": [{"compound": "CC[C@H](C)[C@@H]1NC(=O)[C@H](CCCCN)NC(=O)[C@H](Cc2ccccc2)NC(=O)[C@H](Cc2c[nH]c3ccccc23)NC(=O)[C@H](CCCCN)NC(=O)[C@H](CCCCN)NC(=O)[C@H]([C@@H](C)CC)NC1=O", "note": "[compound 16] (cyclo(FKIIKKW))", "values": [{"measurement": "MIC C. glabrata", "setting": "C. glabrata", "result": 4, "unit": "µmol/L"}, {"measurement": "MIC C. krusei", "setting": "C. krusei", "result": 8, "unit": "µmol/L"}, {"measurement": "MIC C. rugosa", "setting": "C. rugosa", "result": 32, "unit": "µmol/L"}, {"measurement": "MIC C. albicans", "setting": "C. albicans", "result": 4, "unit": "µmol/L"}, {"measurement": "MIC C. inconspic.", "setting": "C. inconspicua", "result": 2, "unit": "µmol/L"}]}, {"compound": "CC[C@H](C)[C@@H]1NC(=O)[C@H](CO)NC(=O)[C@H]([C@@H](C)CC)NC(=O)[C@H](CCCCN)NC(=O)[C@H](Cc2ccccc2)NC(=O)[C@@H]2CCCN2C(=O)[C@H](CC(C)C)NC(=O)[C@H](Cc2c[nH]cn2)NC1=O", "note": "[peptide 14] (cyclo(FKISIHLP))", "values": [{"measurement": "MIC C. glabrata", "setting": "C. glabrata", "result": "> 60", "unit": "µmol/L"}, {"measurement": "MIC C. krusei", "setting": "C. krusei", "result": "> 60", "unit": "µmol/L"}, {"measurement": "MIC C. rugosa", "setting": "C. rugosa", "result": "> 60", "unit": "µmol/L"}, {"measurement": "MIC C. albicans", "setting": "C. albicans", "result": "> 60", "unit": "µmol/L"}, {"measurement": "MIC C. inconspic.", "setting": "C. inconspicua", "result": "> 60", "unit": "µmol/L"}]}, {"compound": "CC[C@H](C)[C@H](NC(=O)[C@H](CO)NC(=O)[C@@H](NC(=O)[C@H](CCCCN)NC(=O)[C@H](Cc1ccc(C2=C3C=CC(c4ccc(OC)cc4)=[N+]3[B-](F)(F)n3c2ccc3-c2ccc(OC)cc2)cc1)NC(=O)[C@@H]1CCCN1)[C@@H](C)CC)C(=O)N[C@@H](Cc1c[nH]cn1)C(=O)N[C@@H](CC(C)C)C(N)=O", "note": "[peptide 17, H-Pro-Phe(pMP-BODIPY)-Lys-Ile-Ser-Ile-His-Leu-NH2] (H-P[X1]KISIHL-NH2)", "values": [{"measurement": "Photostability in human urine upon continuous light irradiation", "setting": "[1]; 30 µM, 384-well plates, 37 °C, fluorescence emission 644 nm, λexc 530 nm, mean of three independent experiments n=3", "result": "fully stable"}, {"measurement": "Chemical stability (integrity) in human urine", "setting": "[1]; 100 µM, 37 °C, 0, 1 and 10 h, HPLC-MS, absorbance 570 nm", "result": "fully stable"}]}, {"compound": "H-FVQWFSKFLGKIL-NH2 [peptide 12, H-Phe-Val-Gln-Trp-Phe-Ser-Lys-Phe-Leu-Gly-Lys-Ile-Leu-NH2]", "values": [{"measurement": "MIC C. glabrata", "setting": "C. glabrata", "result": 30, "unit": "µmol/L"}, {"measurement": "MIC C. krusei", "setting": "C. krusei", "result": 30, "unit": "µmol/L"}, {"measurement": "MIC C. rugosa", "setting": "C. rugosa", "result": 15, "unit": "µmol/L"}, {"measurement": "MIC C. albicans", "setting": "C. albicans", "result": 15, "unit": "µmol/L"}, {"measurement": "MIC C. inconspic.", "setting": "C. inconspicua", "result": 60, "unit": "µmol/L"}]}, {"compound": "WFKIIKK-NH2 [peptide 15]", "values": [{"measurement": "MIC C. glabrata", "setting": "C. glabrata", "result": 16, "unit": "µmol/L"}, {"measurement": "MIC C. krusei", "setting": "C. krusei", "result": 8, "unit": "µmol/L"}, {"measurement": "MIC C. rugosa", "setting": "C. rugosa", "result": "> 60", "unit": "µmol/L"}, {"measurement": "MIC C. albicans", "setting": "C. albicans", "result": 16, "unit": "µmol/L"}, {"measurement": "MIC C. inconspic.", "setting": "C. inconspicua", "result": 4, "unit": "µmol/L"}]}]}
